Like-named read-outs stand apart in the source and are kept apart here.
Columns and labels:
[1] = Glucagon infusions with somatostatin; metabolic clearance of glucagon; format: in vivo, human
Text: FIGS. 3A and 3B provide graphs of plasma glucagon concentrations during different glucagon infusion rates in human subjects. FIG. 3A illustrates data from studies that report lower glucagon concentrations during glucagon infusions (Chhibber, et al. Metabolism 49(1):39-46 (2000) and Matsuda, et al. Metabolism 51(9):1111-1119 (2002)) and FIG. 3B illustrates data from studies that report higher glucagon concentrations during glucagon infusions (Nielsen, et al., Diabetes 46(12):2007-2016 (1997) and Andrews, et al., J. Clin. Endocrinol. Metab. 88(1):285-291 (2003)). The equation for the regression line in FIG. 3A is y=0.41x+60.15 with r^2=0.96 and the regression line in FIG. 3B is y=x+69.5 with r=0.97.
Different research groups report considerably different glucagon concentrations in response to plasma glucagon infusions. In FIG. 3A, the regression line yields m=0.00041 min/ml, whereas for the regression line for 3B yields m=0.001 min/ml. These differences lead to considerable differences in predicted portal glucagon concentrations in both fasted and fed conditions, as described below. The MCR for glucagon has been reported to be between 7-14 ml/kg/min; taking the reciprocal of the MCR for a 70 kg individual gives m=0.001-0.002 min/ml. As a result of the variability in the reported measurements for this parameter, two different possibilities are considered in the analyses: one where m=0.00041 and another where m=0.001 min/ml.

[2] = reported; cited from earlier work
[3] = cited from earlier work
[4] = pigs; cited from earlier work
[5] = dogs; cited from earlier work
[6] = sheep; cited from earlier work
[7] = rats; cited from earlier work
[8] = healthy patients; cited from earlier work
[9] = cited from earlier work; remark: listed apart in the source

Substance	m as reciprocal of reported MCR ([1]; for a 70 kg individual)	m (slope of plasma glucagon concentration versus infusion rate) ([1]; studies with higher glucagon concentrations (FIG. 3B))	m (slope of plasma glucagon concentration versus infusion rate) ([1]; studies with lower glucagon concentrations (FIG. 3A), about twice the somatostatin rate)	MCR for glucagon [2]	hepatic glucagon extraction in humans ([3]; Felig et al.)	portal glucagon concentration relative to systemic plasma ([3]; reported in the literature)	hepatic glucagon extraction, f [4]	hepatic glucagon extraction, f [5]	hepatic glucagon extraction, f [6]	hepatic glucagon extraction, f [7]	m as reciprocal of reported MCR (for a 70 kg patient)	m (slope of steady-state systemic plasma concentration versus exogenous infusion rate; reciprocal of MCR) (insulin infusions with somatostatin, healthy individuals, studies of FIG. 2, 70 kg individual)	metabolic clearance rate (MCR) of insulin [8]	fractional extraction of insulin by the liver, f ([9]; most estimates)	fractional extraction of insulin by the liver, f ([9]; portal catheterization study and mathematical models based on insulin and c-peptide concentrations)	fractional extraction of insulin by the liver, f ([9]; splanchnic balance studies)
glucagon	0.001 to 0.002 min/mL	0.001 min/ml and ≈ 0.001 min/ml	0.00041 min/ml and ≈ 0.0004 min/ml	7 to 14 mL/kg/min	little or no hepatic glucagon extraction	1.3-3.0 times higher	≈ 0.1	≈ 0.2	≈ 0.07	≈ 0.5	–	–	–	–	–	–
insulin	–	–	–	–	–	–	–	–	–	–	0.0005 to 0.001 min/mL	0.0007 min/ml and approximately 0.0007 min/ml	13 to 27 mL/kg/min	0.5-0.7	≈ 0.5	0.7
